Measurements published in patent publication US20250066423A1, “SESTRIN-MAPK COMPLEX INHIBITORS” (Sentcell Ltd, priority 2021, published 2025).
Peptide text beside a SMILES is read from it.

Tests used:
H1N1 PR8/54 [1] = format: in vivo, mice
H1N1 PR8/54 [2] = test system: H1N1 PR8/54; set-up: species or system mice; conditions: mouse, in vivo
[3] = test system: telomere extension in T cells exposed to APCs; assay: Telomere length quantification assay (qPCR); format: cell-based, human; conditions: 5 donors
Text: FIG. 23 illustrates live transfer of telomeres from APC to T cells in the presence of DOS. (A, left): T cells showing baseline fluorescence in the channel of Tel C; (A, middle): T cells treated with DOS cultured with APC; (A, right): T cells co-cultured with APC, in the absence of DOS. DOS enhances telomere transfer by ˜2 fold. Representative of 3 experiments. (B): Telomere extension was quantified by qPCR. Synapse-driven telomere extension (Akb) in T cells exposed to APCs and treated with or without DOS46L. Results from 5 donors are shown. […] Mann-Whitney was used. *p<0.05.
• 1. CD4− and CD4+ cells were purified from PBMC using appropriate microbead kit (Miltenyi) • 2. CD4+ cells were then used to purify CD27− and CD28− cells by using Miltenyi purification kits. • 3. A pellet of CD4− and CD4+/CD27−/CD28− cells were frozen. • 4. 4*10^6 CD4− were mixed with 1*10^6 CD4+/CD27−/CD28− cells in presence or not of DOS 46L 10 μM. • 14. The mixed cells were stimulated o.n. with a mix 1:1 of CMV and EBV • 15. The day after, CD4− cells were detached from conjugates with CD4+/CD27−/CD28− cells with a syringe by using cold PBS • 5. CD4− were then purified from CD4+ cells by using Miltenyi purification kits. • 16. CD4− and CD4+ cell pellets post conjugate were then frozen. • 17.

[4] = test system: T cells (senescent CD3+ CD4+ CD27− CD28− population); conditions: DOS-FITC 10 μM, 4 hrs
Protocol: (A-B) CD4+ T cells were isolated from peripheral blood mononuclear cells (PBMCs) from healthy donors and treated with DOS compounds. (A) Representative confocal images of CD4+ T cells stained with DOS-FITC and CD3-AF594. (B) Quantification of DOS46L penetration by flow cytometry in CD4+ CD27-CD28-cells (Tsen) and in CD4+CD27+CD28+ (Terl).
Purified T cells were plated at the concentration 1*10^6 cell/well in 24 well plate • 2. Cells were treated with 10 μM of DOS-FITC for 4 hrs • 3. Then collected and centrifuged at 500 g for 5 mins • 4. Washed two times with ice-cold PBS • 5. Cells were resuspended in 200 ul of PBS and plated in a pre-treated coverslip with poly-lysine • 6. Cells were fixed with 4% of formaldehyde in ice for 20 mins • 7. Washed three times with PBS • 8. Blocked with PBS-BSA 5% • 9. Cells were then incubated with primary antibody (anti-CD3 1:100) overnight at 4 C • 10. Washed three times with PBS • 11. Then incubated with secondary antibody (anti-mouse conjugated with AF-594; 1:250) for 1 hr at room temperature • 12. Washed three times with PBS 13. Cells were permeabilized with Triton 0.25% in PBS for 2 mins • 14. Followed incubation with antibody anti-KDEL (Abcam) and anti-sestrin 2 (Gentex) diluted 1:100 at 4 C over-night • 15. Washed for three times with PBS • 16. […]

Sestrin 2 = molecular target: T1, Sestrin 2 (Homo sapiens, UniProt P58004); assay: Proteasomal degradation and ubiquitination of sestrin 2 (MG-132 pre-treatment, immunoprecipitation, immunoblot); format: cell-based; set-up: endogenous in cells; host or cells: primary CD4+ T cells from PBMCs of healthy donors
T1 sequence (P58004 1-480): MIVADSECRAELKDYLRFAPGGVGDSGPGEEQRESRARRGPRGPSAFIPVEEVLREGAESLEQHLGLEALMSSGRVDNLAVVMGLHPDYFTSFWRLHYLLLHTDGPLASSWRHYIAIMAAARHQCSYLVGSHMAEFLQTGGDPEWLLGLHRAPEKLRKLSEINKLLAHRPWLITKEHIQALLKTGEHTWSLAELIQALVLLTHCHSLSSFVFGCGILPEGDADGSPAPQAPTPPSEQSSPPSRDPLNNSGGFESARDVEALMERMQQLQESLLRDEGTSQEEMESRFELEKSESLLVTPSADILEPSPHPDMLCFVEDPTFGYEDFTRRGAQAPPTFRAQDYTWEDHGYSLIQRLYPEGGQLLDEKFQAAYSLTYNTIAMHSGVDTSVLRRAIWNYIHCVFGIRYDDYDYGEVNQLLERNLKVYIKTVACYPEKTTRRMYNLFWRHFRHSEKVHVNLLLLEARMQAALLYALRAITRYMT
Protocol: FIG. 6 illustrates sMAC disruption by DOS46L. (A) CD4+ T cells were purified from PBMCs from healthy donors and treated with DOS46L (10 uM) for the indicated time points. The binding of AMPK to Sestrin 2 was quantified against the total level of Sestrin 2 immunoprecipitated and detected by ELISA. IgG immunoprecipitates served as background control. (B) Cells were pre-treated with proteasome-inhibitor MG-132 (10 uM) for 30 min and subsequently treated with DOS46L (10 uM) for 4 hours. Cells were harvested for immunoblot analysis or proceeded to immunoprecipitation. Levels of Sestrin 2, p38, and AMPK were evaluated by immunoblotting. H3 was used as a loading control. Representative images of 3 experiments are shown. (C) Immunoblot levels of Ubiquitin, Sestrin 2 and Histone 3 in Sestrin 2 immunoprecipitates and their lysates were analysed. Representative images are shown (top). The mean values (bottom) of ubiquitinated proteins in Sestrin 2 immunoprecipitates are shown. Results are presented as a mean±SD of 4 repeated experiments. Student's T-test was used to analyse the data. **p<0.01
• 1. Cell pellet was lysed with 100 μL of denaturing lysis buffer • 2. Then mixed well by vortexing vigorously for 2-3 sec at maximum speed. • 3. Samples were then boiled at 95° C. for 5 min. • 4. Samples were then diluted 900 μl of non-denaturing lysis buffer and mixed gently. • 5. […]

## CC[C@H](C)[C@@H]1NC(=O)[C@H](Cc2ccccc2)NC(=O)[C@H](C)NC(=O)[C@H](C(C)C)NC(=O)[C@@H]2CCCN2C1=O [DOS46L] (cyclo(AFIPV))
H1N1 PR8/54 [1]; 0.1. mg/Kg
  relative effectiveness at low dose: more effective at a very low dose
H1N1 PR8/54 [1]; old mice, vaccination with DOS, H1N1 PR8/54
  survival data, comparison of compounds: similar
H1N1 PR8/54 [2]
  protection from lethal viral challenge without vaccine: prevented death
[3]
  synapse-driven telomere extension: restoration in telomere length is similar to the extension observed in young T cells
[4]
  cell penetration: able to penetrate T cells
Sestrin 2; MG-132 10 uM 30 min, then DOS46L 10 uM 4 hours
  inhibition of sestrin and AMPK after proteasome inhibitor pre-treatment: vanished
Sestrin 2; T cells exposed to DOS46L 10 uM, 4 hours
  ubiquitinated sestrin 2 immunoprecipitated: increased amount
